A short description of data set [1]: calcium chelation value of crude ligand. It is filed as physicochemical. On the set-up: unit not given here. The procedure:
(§1) The diethanolamine derivatives and maleic anhydride can be synthesized by the reaction according to equation (I). The diethanolamine precursor, maleic anhydride, and selected catalyst were added into about 15-20 mL of dichloromethane solvent, wherein the amounts of each compounds were shown in table 1. Then, the obtained mixture was refluxed at the temperature of 50° C. until the reaction was completed. The amount of precursors being used was monitored. The solvent was removed from the obtained product. The obtained product was dissolved in 50 mL of distilled water and washed with dichloromethane for at least 3 times (30 mL each). After being washed, the obtained product was dried under vacuum and analyzed for its property using ^1H NMR spectroscopy and liquid chromatography mass spectrometry (LC/MS) technique.
as §1, with “succinic” for “maleic”, “(II).” for “(I).”, “3.” for “1.”, “in” for “in 50 mL of”, “water (50 mL)” for “water”
as §1, with “and succinic” for “and maleic”, “equation (III).” for “equation (I).”, “precursor, phthalic” for “precursor, maleic”, “table 5.” for “table 1.”, “in” for “in 50 mL of”, “water (50 mL)” for “water”

A short description of data set [2]: stability constant by complex titration. The format is physicochemical. The conditions noted are these: synthesized chelating agent. The text has this:
The analysis of stability constant between the synthesized chelating agent and metal ions can be performed by complex titration wherein the stability constant of the synthesized chelating agent and metal ions comparing to the previous disclosed degradable chelating agent can be performed according to table 7.

The conditions of data set [3]: cobolt (Co^2+); previous disclosed chelating agent; cited from earlier work.
The conditions of data set [4]: calcium (Ca^2+); previous disclosed chelating agent; cited from earlier work.
For data set [5] the following is noted: tin (Pb^2+); previous disclosed chelating agent; cited from earlier work.
For data set [6] the following is noted: barium (Ba^2+); previous disclosed chelating agent; cited from earlier work.
For data set [7] the following is noted: cadmium (Cd^2+); previous disclosed chelating agent; cited from earlier work.
The conditions of data set [8]: zinc (Zn^2+); previous disclosed chelating agent; cited from earlier work.
The conditions of data set [9]: copper (Cu2+); previous disclosed chelating agent; cited from earlier work.
The conditions of data set [10]: nickel (Ni^2+); previous disclosed chelating agent; cited from earlier work.
For data set [11] the following is noted: magnesium (Mg^2+); previous disclosed chelating agent; cited from earlier work.
The conditions of data set [12]: iron (Fe^3+); previous disclosed chelating agent; cited from earlier work.
The conditions of data set [13]: iron (Fe^2+); previous disclosed chelating agent; cited from earlier work.
For data set [14] the following is noted: manganese (Mn^2+); previous disclosed chelating agent; cited from earlier work.
Setting [15] is: crude of ligand 1-1 to ligand 1-11 without purification.
[16] abbreviates: crude of ligand 2-1 to ligand 2-9 without purification.
Where [17] appears, read: crude of ligand 3-1 to ligand 3-7 without purification.

Like-named read-outs stand apart in the source and are kept apart here.

In US20200095192A1, “BIODEGRADABLE DIETHANOLAMINE DERIVATIVE CHELATING AGENT AND PREPARATION PROCESS THEREOF” (PTT Global Chemical Public Company Limited, priority 2017, published 2020) one finds calcium chelation value and stability constant data, which are given here for 30 compounds.

For the compound `O=C(O)/C=C/C(=O)OCCN(CCOC(=O)/C=C/C(=O)O)C(=O)/C=C/C(=O)O` [ligand 1-1], the calcium chelation value in data set [1] (setting [15]) is on record as 4.
Regarding `O=C(O)/C=C/C(=O)OCCN(CCOC(=O)/C=C/C(=O)O)C(=O)/C=C/C(=O)O` [ligand 1], the stability constant in [2] (aluminium (Al^3+)) came out at 10.7; in data set [2] (barium (Ba^2+)) it was 7.8; in [2] (cadmium (Cd^2+)) it was 8.5; in [2] (calcium (Ca^2+)), 9.3; in data set [2] (cobolt (Co^2+)) it was 10.4; in data set [2] (copper (Cu2+)) it was 12.8. The stability constant in data set [2] (iron (Fe^2+)) was 14.8; in data set [2] (iron (Fe^3+)) it was 9.5; in data set [2] (magnesium (Mg^2+)), 8.3; in data set [2] (manganese (Mn^2+)), 10.4; in data set [2] (mercury (Hg^2+)) it was 7.8; in data set [2] (nickel (Ni^2+)), 5.0. For the same compound, the figures for the stability constant in data set [2] (strontium (Sr^2+)), in [2] (tin (Pb^2+)) and in data set [2] (zinc (Zn^2+)) were 7.7, 11.4 and 9.0, respectively.
As for `O=C(O)C[C@H](NCCN[C@@H](CC(=O)O)C(=O)O)C(=O)O` [EDDS, ethylene diamine-N,N-disuccinic acid], the stability constant in [3] is reported as 13.6; in data set [4], 4.6; in data set [5] it was 12.7; in data set [6] it was 3.0; in [7], 16.4; in [8] it was 13.4. Moreover, the stability constant is 18.4 in data set [9], 16.7 in data set [10], 6.0 in data set [11] and 22.0 in [12].
Turning to `CC(C(=O)O)N(CC(=O)O)CC(=O)O` (stereo not drawn) [MGDA, methylglycinediacetic acid], the stability constant in data set [4] is 7.0; in data set [6], 4.9; in data set [8] it was 10.9; in data set [9], 13.9; in [10], 12.0; in [11], 5.8. For the same compound, the stability constant was 16.5 in [12], 8.1 in data set [13] and 8.4 in [14].
Take `O=C(O)/C=C/C(=O)OCCN(CCOC(=O)/C=C/C(=O)O)C(=O)/C=C/C(=O)O` [ligand 1-11]: in data set [1] (setting [15]), the calcium chelation value is on record as 60.
The same measure, in the same setting: with `O=C(O)/C=C/C(=O)OCCN(CCOC(=O)/C=C/C(=O)O)C(=O)/C=C/C(=O)O` [ligand 1-2] the figure was 15.
For `O=C(O)CCC(=O)OCCN(CCOC(=O)CCC(=O)O)C(=O)CCC(=O)O` [ligand 2], the stability constant was determined as 11.4 in [2] (aluminium (Al^3+)); 6.2 in data set [2] (barium (Ba^2+)); 7.2 in data set [2] (cadmium (Cd^2+)); 10.1 in data set [2] (calcium (Ca^2+)); 7.5 in data set [2] (cobolt (Co^2+)); 10.5 in data set [2] (copper (Cu2+)). The stability constant in data set [2] (iron (Fe^2+)) is reported as 12.3; in data set [2] (iron (Fe^3+)) it was 7.5; in data set [2] (magnesium (Mg^2+)) it was 8.1; in [2] (manganese (Mn^2+)), 9.1; in [2] (mercury (Hg^2+)) it was 9.5; in [2] (nickel (Ni^2+)) it was 5.4. Also, the results for the stability constant in [2] (strontium (Sr^2+)), in data set [2] (tin (Pb^2+)) and in data set [2] (zinc (Zn^2+)) were 5.3, 9.9 and 7.9, respectively.
`O=C(O)/C=C/C(=O)OCCN(CCOC(=O)/C=C/C(=O)O)C(=O)/C=C/C(=O)O` [ligand 1-3]: the calcium chelation value in [1] (setting [15]) was 13.
`O=C(O)CCC(=O)OCCN(CCOC(=O)CCC(=O)O)C(=O)CCC(=O)O` [ligand 2-4]: the calcium chelation value in data set [1] (setting [16]) is 21.
In the case of `O=C(O)CCC(=O)OCCN(CCOC(=O)CCC(=O)O)C(=O)CCC(=O)O` [ligand 2-3], in data set [1] (setting [16]), the calcium chelation value was 55.
Take `O=C(O)c1ccccc1C(=O)OCCN(CCOC(=O)c1ccccc1C(=O)O)C(=O)c1ccccc1C(=O)O` [ligand 3-7]: the calcium chelation value in data set [1] (setting [17]) was 76.
For `O=C(O)CCC(=O)OCCN(CCOC(=O)CCC(=O)O)C(=O)CCC(=O)O` [ligand 2-5], the calcium chelation value in data set [1] (setting [16]) amounted to 45.
As for `O=C(O)/C=C/C(=O)OCCN(CCOC(=O)/C=C/C(=O)O)C(=O)/C=C/C(=O)O` [ligand 1-8], the calcium chelation value in data set [1] (setting [15]) worked out at 58.
Regarding `O=C(O)c1ccccc1C(=O)OCCN(CCOC(=O)c1ccccc1C(=O)O)C(=O)c1ccccc1C(=O)O` [ligand 3-1], the calcium chelation value in data set [1] (setting [17]) was determined as 25.
In the case of `O=C(O)c1ccccc1C(=O)OCCN(CCOC(=O)c1ccccc1C(=O)O)C(=O)c1ccccc1C(=O)O` [ligand 3-3], the calcium chelation value in data set [1] (setting [17]) was determined as 81.
For `O=C(O)/C=C/C(=O)OCCN(CCOC(=O)/C=C/C(=O)O)C(=O)/C=C/C(=O)O` [ligand 1-4], the calcium chelation value in [1] (setting [15]) is recorded as 9.
Take `O=C(O)CCC(=O)OCCN(CCOC(=O)CCC(=O)O)C(=O)CCC(=O)O` [ligand 2-6]: the calcium chelation value in data set [1] (setting [16]) came out at 87.
For `O=C(O)CCC(=O)OCCN(CCOC(=O)CCC(=O)O)C(=O)CCC(=O)O` [ligand 2-8], the calcium chelation value in data set [1] (setting [16]) is given as 83.
Turning to `O=C(O)/C=C/C(=O)OCCN(CCOC(=O)/C=C/C(=O)O)C(=O)/C=C/C(=O)O` [ligand 1-5], the calcium chelation value in [1] (setting [15]) amounted to 3.
As to `O=C(O)CCC(=O)OCCN(CCOC(=O)CCC(=O)O)C(=O)CCC(=O)O` [ligand 2-2], the calcium chelation value in data set [1] (setting [16]) is on record as 8.
As to `O=C(O)/C=C/C(=O)OCCN(CCOC(=O)/C=C/C(=O)O)C(=O)/C=C/C(=O)O` [ligand 1-9], the calcium chelation value in data set [1] (setting [15]) came to 83.
On to `O=C(O)CCC(=O)OCCN(CCOC(=O)CCC(=O)O)C(=O)CCC(=O)O` [ligand 2-7], for which the calcium chelation value in data set [1] (setting [16]) amounted to 42.
With `O=C(O)c1ccccc1C(=O)OCCN(CCOC(=O)c1ccccc1C(=O)O)C(=O)c1ccccc1C(=O)O` [ligand 3-4], the calcium chelation value in data set [1] (setting [17]) is reported as 70.
The same measure, in the same setting: the same measure for `O=C(O)c1ccccc1C(=O)OCCN(CCOC(=O)c1ccccc1C(=O)O)C(=O)c1ccccc1C(=O)O` [ligand 3-6]: 88.
For the compound `O=C(O)/C=C/C(=O)OCCN(CCOC(=O)/C=C/C(=O)O)C(=O)/C=C/C(=O)O` [ligand 1-10], the calcium chelation value in data set [1] (setting [15]) is reported as 62.
As for `O=C(O)CCC(=O)OCCN(CCOC(=O)CCC(=O)O)C(=O)CCC(=O)O` [ligand 2-9], in data set [1] (setting [16]), the calcium chelation value was determined as 85.
`O=C(O)/C=C/C(=O)OCCN(CCOC(=O)/C=C/C(=O)O)C(=O)/C=C/C(=O)O` [ligand 1-7]: in [1] (setting [15]), the calcium chelation value is reported as 46.
In the case of `O=C(O)c1ccccc1C(=O)OCCN(CCOC(=O)c1ccccc1C(=O)O)C(=O)c1ccccc1C(=O)O` [ligand 3-2], the calcium chelation value in data set [1] (setting [17]) came out at 15.
Turning to `O=C(O)c1ccccc1C(=O)OCCN(CCOC(=O)c1ccccc1C(=O)O)C(=O)c1ccccc1C(=O)O` [ligand 3-5], the calcium chelation value in data set [1] (setting [17]) was 75.
For `O=C(O)CCC(=O)OCCN(CCOC(=O)CCC(=O)O)C(=O)CCC(=O)O` [ligand 2-1], the calcium chelation value in [1] (setting [16]) amounted to 5.
